Earlier results as cited in PMC3005221 (Biochemistry, 2010).
pKd: −log10 of the molar value.

Target: HDAC6 BUZ domain
Conditions: read-out: KD for HDAC6 BUZ domain (reported); full-length ubiquitin

pKd: 7.22
Substance: ubiquitin
